Source: patent US20250171461A1, “STIMULATOR OF INTERFERON GENES (STING) MODULATORS, AND COMPOSITIONS AND METHODS THEREOF” (Geode Therapeutics Inc., priority 2022, published 2025)

target: T1, human HAQ STING isoform (hSTING HAQ) (Homo sapiens, UniProt Q86WV6, G230A/H232R/R293Q/R71H); assay: IFN-β mRNA level in THP1 cells (qPCR, STING agonist cellular activity); type: cell-based; conditions: compound at 3.6 μM, 2 hrs, IFNβ expression normalized against GAPDH by the 2^-ΔΔCT method, DMSO = 1.0
T1 construct: THP1 cells express the naturally occurring human HAQ STING isoform (hSTING HAQ); host or cells: THP1
Protocol: Cellular activity of STING agonists was determined by mRNA levels of IFN-β in THP1 (Otwo Biotech HTX1621) cell line. THP1 cells express the naturally occurring human HAQ STING isoform (hSTING HAQ), which responses to the activation of STING agonists.
THP1 cells were seeded into Falcon 12-well cell Culture Plate (Corning #353043) at 9×10^5 cells per well, in 1 ml complete culture medium (RPMI-1640, GIBCO #C1187500BT) containing 10% heat inactivated FBS (GIBCO #10099141C), 1% Pen-Strep (HyClone SV30010) and incubated at 37° ΔC, 5% CO2 overnight. On day 2, compound (final concentration at 3.6 μM) or DMSO (0.1%, Sigma Aldrich #8418) was added to THP1 cells and further incubated for 2 hrs min at 37° ΔC, 5% CO2. Cells were then collected for RNA extraction.
Total RNA was extracted with TRIzol reagent (Invitrogen #15596026) and […] was used to synthesize first-strand cDNA with Maxima First Strand cDNA Synthesis Kit (TAKARA #RR036A). Quantitative PCR was performed with Maxima SYBR Green qPCR Master Mix (ABI #4367659, USA). The primer sequences used were as follows: GAPDH (5′-[…]-3′, 5′-[…]-3′). INFP3 (5′-[…]-3′,5′-[…]-3′) Real-time PCR was performed on QuantStudio™ 5 Real-Time PCR System (Thermo Fisher). Relative expression levels of IFNβ gene were normalized against the level of GAPDH expression by the 2^−ΔΔCT method. Each PCR reaction was performed in triplicates.

T1 sequence (Q86WV6 whole entry R71H/G230A/H232R/R293Q, canonical isoform): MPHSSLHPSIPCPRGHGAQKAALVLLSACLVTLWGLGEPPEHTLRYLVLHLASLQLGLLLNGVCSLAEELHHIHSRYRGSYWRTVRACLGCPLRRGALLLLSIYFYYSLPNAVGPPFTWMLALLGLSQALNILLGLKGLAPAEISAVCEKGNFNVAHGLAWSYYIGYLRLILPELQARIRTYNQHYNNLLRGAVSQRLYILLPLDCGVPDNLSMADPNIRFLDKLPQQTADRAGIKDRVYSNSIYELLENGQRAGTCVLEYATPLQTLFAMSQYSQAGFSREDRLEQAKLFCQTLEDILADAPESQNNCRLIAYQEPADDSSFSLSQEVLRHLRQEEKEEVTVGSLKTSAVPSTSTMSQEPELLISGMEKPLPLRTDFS

Structure (SMILES)	Relative mRNA INFβ/GAPDH THP 1
COc1cc(CN(Cc2cn3c4c(c(F)c(F)cc4c2=O)OCC3(C)C)[C@H]2CCCN(c3ccc(N)nc3)C2)ccn1 [Compound 48, (S)-6-(((1-(6-aminopyridin-3-yl)piperidin-3-yl)((2-methoxypyridin-4-yl)methyl)amino)methyl)-9,10-difluoro-3,3-dimethyl-2H-[1,4]oxazino[2,3,4-ij]quinolin-7(3H)-one]	1202.3
COc1cc(CN(Cc2cn3c4c(c(N5CCN(C)CC5)c(F)cc4c2=O)OCC3C(C)C)[C@H]2CCCN(c3ccc(N)nc3)C2)ccn1 (stereo partly drawn) [Compound 96, 6-((((S)-1-(6-aminopyridin-3-yl)piperidin-3-yl)((2-methoxypyridin-4-yl)methyl)amino)methyl)-9-fluoro-3-isopropyl-10-(4-methylpiperazin-1-yl)-2,3-dihydro-7H-[1,4]oxazino[2,3,4-ij]quinolin-7-one]	451.1
Cc1cc(CN(Cc2cn3c4c(c(F)c(F)cc4c2=O)OCC3C)[C@H]2CCCN(c3ccc(N)nc3)C2)ccn1 (stereo partly drawn) [Compound 3, 6-((((S)-1-(6-aminopyridin-3-yl)piperidin-3-yl)((2-methylpyridin-4-yl)methyl)amino)methyl)-9,10-difluoro-3-methyl-2H-[1,4]oxazino[2,3,4-ij]quinolin-7(3H)-one]	1356.3
COc1cc(CN(Cc2cn3c4c(c(F)c(F)cc4c2=O)OC[C@@H]3C)[C@H]2CCCN(c3ccc(N)nc3)C2)ccn1 [Compound 6, (S)-6-((((S)-1-(6-aminopyridin-3-yl)piperidin-3-yl)((2-methoxypyridin-4-yl)methyl)amino)methyl)-9,10-difluoro-3-methyl-2H-[1,4]oxazino[2,3,4-ij]quinolin-7(3H)-one]	1595.2
COc1cc(CN(Cc2cn3c4c(c(F)c(F)cc4c2=O)OCC3C)[C@H]2CCCN(c3ccc(N(C)C)nc3)C2)ccn1 (stereo partly drawn) [Compound 19, 11-[[[(3S)-1-[6-(dimethylamino)-3-pyridyl]-3-piperidyl]-[(2-methoxy-4-pyridyl)methyl]amino]methyl]-6,7-difluoro-2-methyl-4-oxa-1-azatricyclo[7.3.1.05,13]trideca-5(13),6,8,11-tetraen-10-one]	2625.9
COc1cc(CN(Cc2cn3c4c(c(N5CC(O)C5)c(F)cc4c2=O)OCC3C)[C@H]2CCCN(c3ccc(N)nc3)C2)ccn1 (stereo partly drawn) [Compound 38, 6-((((S)-1-(6-aminopyridin-3-yl)piperidin-3-yl)((2-methoxypyridin-4-yl)methyl)amino)methyl)-9-fluoro-10-(3-hydroxyazetidin-1-yl)-3-methyl-2H-[1,4]oxazino[2,3,4-ij]quinolin-7(3H)-one]	672.0
Cc1cc(CN(Cc2cn3c4c(c(F)c(F)cc4c2=O)OCC3C)[C@H]2CCCN(c3ccc(C#N)nc3)C2)ccn1 (stereo partly drawn) [Compound 12, 5-((3S)-3-(((9,10-difluoro-3-methyl-7-oxo-3,7-dihydro-2H-[1,4]oxazino[2,3,4-ij]quinolin-6-yl)methyl)((2-methylpyridin-4-yl)methyl)amino)piperidin-1-yl)picolinonitrile]	14.1
COc1cc(CN(Cc2cn3c4c(c(F)c(F)cc4c2=O)OC2(CCC2)C3)[C@H]2CCCN(c3ccc(N)nc3)C2)ccn1 [Compound 49, (S)-6-(((1-(6-aminopyridin-3-yl)piperidin-3-yl)((2-methoxypyridin-4-yl)methyl)amino)methyl)-9,10-difluorospiro[[1,4]oxazino[2,3,4-ij]quinoline-2,1′-cyclobutan]-7(3H)-one]	5276.2
Cc1cc(CN(Cc2cn3c4c(c(F)c(F)cc4c2=O)OCC3)[C@H]2CCCN(c3ccc(N)nc3)C2)cc(C)c1F [Compound 78, (S)-6-(((1-(6-aminopyridin-3-yl)piperidin-3-yl)(4-fluoro-3,5-dimethylbenzyl)amino)methyl)-9,10-difluoro-2,3-dihydro-7H-[1,4]oxazino[2,3,4-ij]quinolin-7-one]	1.2
